One may read the EC50 as the midpoint of the concentration-response curve. Usually CC50 stands for the concentration at which the toxic effect on the cells reaches its halfway point.

Starred links: 1 amine or outer side, 2 acyl side, 3 side chain; linkers in the order of their positions; H or OH if unused. Positions of bridges follow the written chain, without caps; N, C: chain ends. Non-standard residues stand in square brackets, D forms with d. Residues, ends and D or L forms follow the SMILES beside them. Chains are numbered I, II in the order given. *: point of attachment. Orn = NCCC[C@H](N)C(=O)O; X1 = O=C(C[*:1])[*:2]; Cam = NC(=O)C*

This is an account of results in ChEMBL document CHEMBL3600292, “Anti-HIV screening for cell-penetrating peptides using chloroquine and identification of anti-HIV peptides derived from matrix proteins” (Bioorg Med Chem, 2015).

The test system of data set [1] is Human immunodeficiency virus 1. The experiment in a line: Antiviral activity against T-cell line-tropic HIV1 NL4-3 infected in human MT4 cells assessed as inhibition of virus-induced cytopathogenicity after 5 days by MTT assay in presence of 5 uM of chloroquine. The data set is classed as functional, organism-based. The following applies: Human immunodeficiency virus 1, NL4-3, MT4, 120 h. On the technique in general: Protection from cytopathic effect is a common read-out in antiviral testing.

Data set [2] can be described thus: Cytotoxicity against human MT4 cells by MTT assay in presence of 5 uM of chloroquine. In kind it is cell-based. In general terms: Tetrazolium dyes change colour on reduction, which living cells bring about.
Data set [3] concerns Human immunodeficiency virus 1. The data set can be described thus: Antiviral activity against T-cell line-tropic HIV1 NL4-3 infected in human MT4 cells assessed as inhibition of virus-induced cytopathogenicity after 5 days by MTT assay in presence of 2.5 uM of chloroquine. The data set is classed as functional, organism-based. The following applies: Human immunodeficiency virus 1, NL4-3, MT4, 120 h.

Data set [4] is described as follows: Cytotoxicity against human MT4 cells by MTT assay. In kind it is cell-based.
A short description of data set [5]: Cytotoxicity against human MT4 cells by MTT assay in presence of 10 uM of chloroquine. In kind it is cell-based.
Data set [6] in a line: Cytotoxicity against human PM1 cells expressing CCR5 by MTT assay in presence of 5 uM of chloroquine. The data set is classed as cell-based.
The subject of data set [7] is Human immunodeficiency virus 1. The experiment in a line: Antiviral activity against macrophage-tropic HIV1 NL(AD8) infected in human PM1 expressing CCR5 cells assessed as inhibition of virus-induced cytopathogenicity after 5 days by MTT assay in presence of 5 uM of chloroquine. In kind it is functional, organism-based. To be noted: Human immunodeficiency virus 1, NL(AD8), PM1/CCR5, 120 h.

Data set [8] relates to Human immunodeficiency virus 1. The experiment in a line: Antiviral activity against T-cell line-tropic HIV1 NL4-3 infected in human MT4 cells assessed as inhibition of virus-induced cytopathogenicity after 5 days by MTT assay. To be noted: Human immunodeficiency virus 1, NL4-3, MT4, 120 h. In kind it is functional, organism-based.
A short description of data set [9]: Cytotoxicity against human MT4 cells by MTT assay in presence of 2.5 uM of chloroquine. In kind it is cell-based.
Data set [10] deals with Human immunodeficiency virus 1. The data set can be described thus: Antiviral activity against T-cell line-tropic HIV1 NL4-3 infected in human MT4 cells assessed as inhibition of virus-induced cytopathogenicity after 5 days by MTT assay in presence of 10 uM of chloroquine. In kind it is functional, organism-based. To be noted: Human immunodeficiency virus 1, NL4-3, MT4, 120 h.

As to `CC[C@H](C)[C@H](NC(=O)[C@H](CCCNC(=N)N)NC(=O)[C@H](CCC(N)=O)NC(=O)[C@H](Cc1cnc[nH]1)NC(=O)[C@@H](NC(=O)[C@H](CO)NC(=O)[C@H](Cc1ccc(O)cc1)NC(=O)[C@H](CC(C)C)NC(=O)[C@@H](NC(=O)[C@H](C)NC(=O)[C@@H](NC(=O)[C@@H](NC(C)=O)[C@@H](C)O)[C@@H](C)CC)C(C)C)C(C)C)C(=O)N[C@@H](CC(=O)O)C(=O)N[C@H](C(=O)N[C@@H](CCCCN)C(=O)NCC(=O)N[C@@H](CSCC(N)=O)C(N)=O)C(C)C` (Ac-TIAVLYSVHQRIDVKGC(Cam)-NH2), the EC50 in data set [1] was 22000 nM; in data set [3] it was greater than 50000 nM; in data set [7], greater than 50000 nM; in data set [8], greater than 50 µM; in data set [10], 650 nM. Besides, the CC50 was 47 µM in data set [2]; greater than 50 µM in data set [4]; greater than 50 µM in data set [5]; greater than 50 µM in data set [6]; greater than 50 µM in data set [9].

For `c1cc(CN2CCCNCCNCCCNCC2)ccc1CN1CCCNCCNCCCNCC1` [PLERIXAFOR], the concentration for a half-maximal effect (EC50) was 25 nM in [1], 39 nM in [3], greater than 50000 nM in [7] and 0.032 µM in data set [8]. Moreover, the CC50 in data set [2], in data set [4], in [5], in [6] and in data set [9] was greater than 50 µM in each case.

On to `CC[C@H](C)[C@H](NC(=O)[C@H](CCCNC(=N)N)NC(=O)[C@H](CCC(N)=O)NC(=O)[C@H](Cc1c[nH]cn1)NC(=O)[C@@H](NC(=O)[C@H](CO)NC(=O)[C@H](Cc1ccc(O)cc1)NC(=O)[C@H](CC(C)C)NC(=O)[C@@H](NC(=O)[C@H](C)NC(=O)[C@@H](NC(=O)[C@@H](NC(C)=O)[C@@H](C)O)[C@@H](C)CC)C(C)C)C(C)C)C(=O)N[C@@H](CC(=O)O)C(=O)N[C@H](C(=O)N[C@@H](CCCCN)C(=O)NCC(=O)N[C@@H](CSCC(=O)N[C@@H](CCCNC(=N)N)C(=O)N[C@@H](CCCN)C(=O)N[C@@H](CCCNC(=N)N)C(=O)N[C@@H](CCCN)C(=O)N[C@@H](CCCNC(=N)N)C(=O)N[C@@H](CCCN)C(=O)N[C@@H](CCCNC(=N)N)C(=O)N[C@@H](CCCN)C(N)=O)C(N)=O)C(C)C` (I: Ac-TIAVLYSVHQRIDVKGC-NH2 / II: R[Orn]R[Orn]R[Orn]R[Orn]-NH2; linker I:17-II:N via X1), for which the EC50 in [1] worked out at 620 nM; in [3], 1600 nM; in data set [7], 1100 nM; in [8], 6.3 µM; in data set [10], 200 nM. Moreover, the CC50 stood at 11 µM in [2]; 10 µM in [4]; 9.1 µM in [5]; 7.2 µM in data set [6]; 6.1 µM in [9].

As for `CC[C@H](C)[C@H](NC(=O)[C@@H](NC(=O)[C@H](CC(N)=O)NC(=O)[C@H](Cc1ccc(O)cc1)NC(=O)[C@H](CC(C)C)NC(=O)[C@H](CO)NC(=O)[C@H](CCCNC(=N)N)NC(=O)[C@H](CC(C)C)NC(=O)[C@H](CCC(=O)O)NC(C)=O)[C@@H](C)O)C(=O)N[C@@H](C)C(=O)N[C@H](C(=O)N[C@@H](CC(C)C)C(=O)N[C@@H](Cc1ccc(O)cc1)C(=O)N[C@@H](CO)C(=O)N[C@H](C(=O)NCC(=O)N[C@@H](CSCC(=O)N[C@@H](CCCNC(=N)N)C(=O)N[C@@H](CCCN)C(=O)N[C@@H](CCCNC(=N)N)C(=O)N[C@@H](CCCN)C(=O)N[C@@H](CCCNC(=N)N)C(=O)N[C@@H](CCCN)C(=O)N[C@@H](CCCNC(=N)N)C(=O)N[C@@H](CCCN)C(N)=O)C(N)=O)C(C)C)C(C)C`, the EC50 is 4500 nM in [1], 2300 nM in data set [7] and greater than 7.7 µM in [8]. In addition, the CC50 in data set [2] came to 8.1 µM; in data set [4], 7.7 µM; in data set [6] it was 8.4 µM.

As to `Cc1cn([C@H]2C[C@H](N=[N+]=[N-])[C@@H](CO)O2)c(=O)[nH]c1=O` [ZIDOVUDINE], the EC50 in data set [1] came out at 13 nM; in [3] it was 15 nM; in data set [7], 510 nM; in data set [8], 0.12 µM. In addition, the CC50 in data set [2] is greater than 100 µM; in [4], greater than 100 µM; in [5] it was 31 µM; in [6], greater than 100 µM; in [9], 27 µM.

For `CC[C@H](C)[C@H](NC(=O)[C@H](CCCCN)NC(=O)[C@@H](NC(=O)[C@H](CCC(N)=O)NC(=O)[C@H](CCCNC(=N)N)NC(=O)[C@H](C)NC(=O)[C@H](Cc1c[nH]cn1)NC(C)=O)[C@@H](C)O)C(=O)N[C@@H](Cc1ccc(O)cc1)C(=O)N[C@H](C(=O)N[C@H](C(=O)N[C@@H](CC(=O)O)C(=O)N[C@H](C(=O)N[C@@H](CC(C)C)C(=O)N[C@@H](CO)C(=O)N[C@H](C(=O)NCC(=O)N[C@@H](CSCC(=O)N[C@@H](CCCNC(=N)N)C(=O)N[C@@H](CCCN)C(=O)N[C@@H](CCCNC(=N)N)C(=O)N[C@@H](CCCN)C(=O)N[C@@H](CCCNC(=N)N)C(=O)N[C@@H](CCCN)C(=O)N[C@@H](CCCNC(=N)N)C(=O)N[C@@H](CCCN)C(N)=O)C(N)=O)C(C)C)C(C)C)C(C)C)[C@@H](C)CC` (I: Ac-HARQTKIYIVDVLSVGC-NH2 / II: R[Orn]R[Orn]R[Orn]R[Orn]-NH2; linker I:17-II:N via X1), the EC50 is greater than 8200 nM in data set [1], greater than 8700 nM in [7] and greater than 8.2 µM in data set [8]. Besides, the CC50 stood at 8.2 µM in data set [2], 8.2 µM in [4] and 8.7 µM in [6].
